Source: patent US20160278367A1, “Pesticidal Composition” (priority 2013, published 2016)

Tested on: not listed separately
Experiment: solution and stable suspension of citral
Type: physicochemical
Details: solution
From the text: (§1) In one embodiment the terpene component includes one or more terpenes which contain oxygen. Citral, for example citral 95, is an oxygenated […], C10H16O CAS No. 5392-40-5 (3,7-dimethyl-2,6-octadien-1-a1). A stable suspension of citral can be formed up to about 2500 ppm. Citral can be made into a solution at up to about 500 ppm. A stable suspension of hollow glucan particles incorporating citral of 25 ppt citral can be made.
as §1, with “(3,7-dimethyl-2,6-octadien-1-a1) .” for “(3,7-dimethyl-2,6-octadien-1-a1).”

SMILES	citral can be made into a solution at up to
CC(C)=CCCC(C)=CC=O (mixture of isomers) [Citral, 3,7-dimethyl-2,6-octadien-1-a1]	about 500 ppm

Same assay, conditions: suspension

SMILES	stable suspension of citral can be formed up to
CC(C)=CCCC(C)=CC=O (mixture of isomers) [Citral, 3,7-dimethyl-2,6-octadien-1-a1]	about 2500 ppm

Tested on: hematophagous arthropods
Experiment: terpenes fatal to hematophagous arthropods (test not described)
Details: not given

SMILES	fatal to hematophagous arthropods
C=CC(C)(O)CCC=C(C)C (stereo not drawn) [linalool]	fatal
C=CCc1ccc(O)c(OC)c1 [eugenol]	fatal
C=C(C)[C@H]1CC=C(C)CC1 [redistilled limonene, limonene]	fatal
C=C(C)C1CC=C(C)C(=O)C1 (stereo not drawn) [carvone]	fatal
C=CC(=C)CCC=C(C)C [myrcene]	fatal
CC(C)=CCC/C(C)=C/CO [geraniol]	fatal
CC(=O)/C=C/C1=C(C)CCCC1(C)C [beta-ionone]	fatal
